From ChEMBL document CHEMBL2429833, “A new class of bactericidal agents against S. aureus, MRSA and VRE derived from bisindolylmethane” (Med Chem Res, 2013)
≈ marks a conversion by molar mass, not a printed value. Calls of active or inactive are those of the source. The calls are words filed in the database; no cut-off is given here.

Legend:
Escherichia coli = experiment: Antibacterial activity against Escherichia coli ATCC 25922 after 24 hrs by microdilution method; type: functional, organism-based
Staphylococcus aureus [1] = experiment: Antibacterial activity against Staphylococcus aureus ATCC 29213 after 24 hrs by microdilution method; type: functional; details: ATCC 29213, 24 h
Pseudomonas aeruginosa = experiment: Antibacterial activity against Pseudomonas aeruginosa ATCC 27853 after 24 hrs by microdilution method; type: functional, organism-based
Staphylococcus aureus [2] = experiment: Bactericidal activity against methicillin-resistant Staphylococcus aureus after 24 hrs; type: functional
Enterococcus faecalis [3] = experiment: Bactericidal activity against vancomycin-resistant Enterococcus faecalis after 24 hrs; type: functional
Staphylococcus aureus [4] = experiment: Antibacterial activity against methicillin-resistant Staphylococcus aureus after 24 hrs by microdilution method; type: functional
Staphylococcus aureus [5] = experiment: Bactericidal activity against Staphylococcus aureus ATCC 29213 after 24 hrs; type: functional; details: ATCC 29213, 24 h
Enterococcus faecalis [6] = experiment: Antibacterial activity against vancomycin-resistant Enterococcus faecalis after 24 hrs by microdilution method; type: functional
A549 = experiment: Cytotoxicity against human A549 cells after 48 hrs by MTT assay; type: functional, cell-based
PC-3 = experiment: Cytotoxicity against human PC3 cells after 48 hrs by MTT assay; type: functional, cell-based
HeLa = experiment: Cytotoxicity against human HeLa cells after 48 hrs by MTT assay; type: functional, cell-based

SMILES	Activity (Escherichia coli)	MIC (Staphylococcus aureus [1]) [µg/mL]	Activity (Pseudomonas aeruginosa)	MBC (Staphylococcus aureus [2]) [µg/mL]	MBC (Enterococcus faecalis [3]) [µg/mL]	MIC (Staphylococcus aureus [4]) [µg/mL]	MBC (Staphylococcus aureus [5]) [µg/mL]	MIC (Enterococcus faecalis [6]) [µg/mL]	IC50 (A549) [µM]	IC50 (PC-3) [µM]	IC50 (HeLa) [µM]
O=[N+]([O-])c1ccc(C(c2c[nH]c3ccc(Br)cc23)c2c[nH]c3ccc(Br)cc23)cc1	inactive	4 (≈ 7.62 µM)	inactive	8 (≈ 15.2 µM)	8 (≈ 15.2 µM)	8 (≈ 15.2 µM)	4 (≈ 7.62 µM)	8 (≈ 15.2 µM)			
COc1ccc(S(=O)(=O)n2cc(C(c3ccc(F)cc3)c3cn(S(=O)(=O)c4ccc(OC)cc4)c4ccc(Br)cc34)c3cc(Br)ccc32)cc1		> 128				> 128		> 128	> 100	> 100	> 100
Brc1ccc(C(c2c[nH]c3ccc(Br)cc23)c2c[nH]c3ccc(Br)cc23)cc1	inactive	8 (≈ 14.3 µM)	inactive	64 (≈ 114 µM)	64 (≈ 114 µM)	32 (≈ 57.2 µM)	16 (≈ 28.6 µM)	64 (≈ 114 µM)			
CCCCCn1cc(C(c2ccc(F)cc2)c2cn(CCCCC)c3ccc(Br)cc23)c2cc(Br)ccc21		> 128				> 128		> 128	32.5	40.3	27.2
Brc1ccc2[nH]cc(C(c3c[nH]c4ccc(Br)cc34)C3CCCCC3)c2c1	inactive	16 (≈ 32.9 µM)	inactive	32 (≈ 65.8 µM)	32 (≈ 65.8 µM)	32 (≈ 65.8 µM)	32 (≈ 65.8 µM)	32 (≈ 65.8 µM)			
Fc1ccc(Cn2cc(C(c3ccc(F)cc3)c3cn(Cc4ccc(F)cc4)c4ccc(Br)cc34)c3cc(Br)ccc32)cc1		> 128				> 128		> 128	8.7	36.5	1.1
Fc1ccc(C(c2c[nH]c3ccc(Br)cc23)c2c[nH]c3ccc(Br)cc23)cc1	inactive	1 (≈ 2.01 µM)	inactive	1 (≈ 2.01 µM)	16 (≈ 32.1 µM)	1 (≈ 2.01 µM)	1 (≈ 2.01 µM)	8 (≈ 16.1 µM)	4.5	3.9	2.7
Clc1ccc(C(c2c[nH]c3ccc(Br)cc23)c2c[nH]c3ccc(Br)cc23)cc1	inactive	4 (≈ 7.77 µM)	inactive	8 (≈ 15.5 µM)	8 (≈ 15.5 µM)	8 (≈ 15.5 µM)	4 (≈ 7.77 µM)	8 (≈ 15.5 µM)			
Cn1cc(C(c2ccc(F)cc2)c2cn(C)c3ccc(Br)cc23)c2cc(Br)ccc21		4 (≈ 7.6 µM)		8 (≈ 15.2 µM)	8 (≈ 15.2 µM)	8 (≈ 15.2 µM)	4 (≈ 7.6 µM)	8 (≈ 15.2 µM)	29.4	38.9	25.4
Oc1ccc(C(c2c[nH]c3ccc(Br)cc23)c2c[nH]c3ccc(Br)cc23)cc1	inactive	0.5 (≈ 1.01 µM)	inactive	1 (≈ 2.02 µM)	2 (≈ 4.03 µM)	1 (≈ 2.02 µM)	0.5 (≈ 1.01 µM)	2 (≈ 4.03 µM)			
N#Cc1ccc2[nH]cc(C(c3ccc(F)cc3)c3c[nH]c4ccc(C#N)cc34)c2c1	inactive	1 (≈ 2.56 µM)	inactive	1 (≈ 2.56 µM)	8 (≈ 20.5 µM)	1 (≈ 2.56 µM)	1 (≈ 2.56 µM)	8 (≈ 20.5 µM)			
Brc1ccc2[nH]cc(C(c3ccc4ccccc4c3)c3c[nH]c4ccc(Br)cc34)c2c1	inactive	16 (≈ 30.2 µM)	inactive	32 (≈ 60.3 µM)	32 (≈ 60.3 µM)	32 (≈ 60.3 µM)	16 (≈ 30.2 µM)	32 (≈ 60.3 µM)			
O=S(=O)(c1ccc(F)cc1)n1cc(C(c2ccc(F)cc2)c2cn(S(=O)(=O)c3ccc(F)cc3)c3ccc(Br)cc23)c2cc(Br)ccc21		> 128				> 128		> 128	> 100	> 100	> 100
Fc1ccc(C(c2cn(Cc3ccc(Cl)cc3)c3ccc(Br)cc23)c2cn(Cc3ccc(Cl)cc3)c3ccc(Br)cc23)cc1		> 128				> 128		> 128	22.8	38.5	18.5
COc1ccc(Cn2cc(C(c3ccc(F)cc3)c3cn(Cc4ccc(OC)cc4)c4ccc(Br)cc34)c3cc(Br)ccc32)cc1		> 128				> 128		> 128	36.4	43.5	48.5
CCOc1ccc2c(c1)OC(C)(C)CC2(c1c[nH]c2ccc(Br)cc12)c1c[nH]c2ccc(Br)cc12	inactive	8 (≈ 13.5 µM)	inactive	32 (≈ 53.8 µM)	32 (≈ 53.8 µM)	32 (≈ 53.8 µM)	8 (≈ 13.5 µM)	32 (≈ 53.8 µM)			
COc1ccc2c(c1)OC(C)(C)CC2(c1c[nH]c2ccc(Br)cc12)c1c[nH]c2ccc(Br)cc12	inactive	4 (≈ 6.89 µM)	inactive	8 (≈ 13.8 µM)	8 (≈ 13.8 µM)	4 (≈ 6.89 µM)	4 (≈ 6.89 µM)	8 (≈ 13.8 µM)			
Fc1ccc(C(c2cn(Cc3ccccc3)c3ccc(Br)cc23)c2cn(Cc3ccccc3)c3ccc(Br)cc23)cc1		> 128				> 128		> 128	28.2	43.1	28.3
CC1(C)CC(c2c[nH]c3ccc(Br)cc23)(c2c[nH]c3ccc(Br)cc23)c2ccc(O)cc2O1	inactive	2 (≈ 3.53 µM)	inactive	2 (≈ 3.53 µM)	4 (≈ 7.06 µM)	2 (≈ 3.53 µM)	2 (≈ 3.53 µM)	4 (≈ 7.06 µM)			
CCCCCCCCn1cc(C(c2ccc(F)cc2)c2cn(CCCCCCCC)c3ccc(Br)cc23)c2cc(Br)ccc21		> 128				> 128		> 128	38.7	44.9	32.4
O=[N+]([O-])c1ccc2[nH]cc(C(c3ccc(O)cc3)c3c[nH]c4ccc([N+](=O)[O-])cc34)c2c1	inactive	1 (≈ 2.33 µM)	inactive	1 (≈ 2.33 µM)	2 (≈ 4.67 µM)	1 (≈ 2.33 µM)	1 (≈ 2.33 µM)	2 (≈ 4.67 µM)			
Oc1cccc(C(c2c[nH]c3ccc(Br)cc23)c2c[nH]c3ccc(Br)cc23)c1	inactive	1 (≈ 2.02 µM)	inactive	2 (≈ 4.03 µM)	8 (≈ 16.1 µM)	2 (≈ 4.03 µM)	1 (≈ 2.02 µM)	4 (≈ 8.06 µM)			
Fc1ccc(C(c2cn(Cc3ccc(Br)cc3)c3ccc(Br)cc23)c2cn(Cc3ccc(Br)cc3)c3ccc(Br)cc23)cc1		> 128				> 128		> 128	24.7	43.7	49
